Results: US8710056B2, “Pyridazine compounds for controlling invertebrate pests” (BASF SE, priority 2009, dated 2014)

Columns and labels:
Assay type in all cases: in vivo
[1] = system: Cotton aphid (Aphis gossypii, mixed life stages); experiment: Activity against cotton aphid, foliar spray on infested cotton plants; conditions: 120 h, determined after 5 days, read-out: mortality in comparison with untreated controls
Protocol: II.1 Activity Against Cotton Aphid (Aphis gossypii, Mixed Life Stages)
(§1) The active compounds were formulated in cyclohexanone as a 10,0000 ppm solution supplied in 1.3 ml ABgene® tubes. These tubes were inserted into an automated electrostatic sprayer equipped with an atomizing nozzle and they served as stock solutions for which lower dilutions were made in 50% acetone:50% water (v/v). A nonionic surfactant (Kinetic®) was included in the solution at a volume of 0.01% (v/v).
Cotton plants at the cotyledon stage were infested with aphids prior to treatment by placing a heavily infested leaf from the main aphid colony on top of each cotyledon. Aphids were allowed to transfer overnight to accomplish an infestation of 80-100 aphids per plant and the host leaf was removed. The infested plants were then sprayed by an automated electrostatic plant sprayer equipped with an atomizing spray nozzle. The plants were dried in the sprayer fume hood, removed from the sprayer, and then maintained in a growth room under fluorescent lighting in a 24-hr photoperiod at 25° C. and 20-40% relative humidity. Aphid mortality on the treated plants, relative to mortality on untreated control plants, was determined after 5 days.

[2] = system: Green peach aphid (Myzus persicae, mixed life stages); experiment: Activity against green peach aphid, foliar spray on infested bell pepper plants; conditions: 120 h, determined after 5 days, read-out: mortality in comparison with untreated controls
Protocol: II.2 Activity Against Green Peach Aphid (Myzus persicae, Mixed Life Stages)
as §1
Bell pepper plants at the first true-leaf stage were infested prior to treatment by placing heavily infested leaves from the main colony on top of the treatment plants. Aphids were allowed to transfer overnight to accomplish an infestation of 30-50 aphids per plant and the host leaves were removed. The infested plants were then sprayed by an automated electrostatic plant sprayer equipped with an atomizing spray nozzle. The plants were dried in the sprayer fume hood, removed, and then maintained in a growth room under fluorescent lighting in a 24-hr photoperiod at 25° C. and 20-40% relative humidity. Aphid mortality on the treated plants, relative to mortality on untreated control plants, was determined after 5 days.

[3] = system: Cowpea aphid (Aphis craccivora); experiment: Activity against cowpea aphid, spray on potted cowpea plants; conditions: spray on colonized cowpea plants, population reduction assessed after 24, 72 and 120 hours, read-out: mortality in comparison with untreated controls
Protocol: II.3 Activity Against Cowpea Aphid (Aphis craccivora)
The active compounds were formulated in 50:50 (vol:vol) acetone:water. The test solution was prepared at the day of use.
Potted cowpea plants colonized with 100-150 aphids of various stages were sprayed after the pest population had been recorded. Population reduction was assesed after 24, 72, and 120 hours.

[4] = system: Silverleaf whitefly (bemisia argentifolii, adult); experiment: Activity against silverleaf whitefly, sprayed cotton plants; conditions: 72 h, whitefly adults, assessed 3 days after treatment, read-out: mortality in comparison with untreated controls
Protocol: II.4 Activity Against Silverleaf Whitefly (bemisia argentifolii, Adult)
as §1
Cotton plants at the cotyledon stage (one plant per pot) were sprayed by an automated electrostatic plant sprayer equipped with an atomizing spray nozzle. The plants were dried in the sprayer fume hood and then removed from the sprayer. Each pot was placed into a plastic cup and 10 to 12 whitefly adults (approximately 3-5 days old) were introduced. The insects were collected using an aspirator and 0.6 cm, nontoxic Tygon® tubing (R-3603) connected to a barrier pipette tip. The tip, containing the collected insects, was then gently inserted into the soil containing the treated plant, allowing insects to crawl out of the tip to reach the foliage for feeding. Cups were covered with a reusable screened lid (150-micron mesh polyester screen PeCap from Tetko, Inc.). […] Mortality was assessed 3 days after treatment, compared to untreated control plants.

[5] = system: Vetch aphid (Megoura viciae); experiment: Activity against vetch aphid, bean leaf disks in microtiterplates; conditions: foliar, 144 h, test solution 2500 mg/L, 2.5 μl sprayed on bean leaf disks, 6 days
Protocol: II.5 Activity Against Vetch Aphid (Megoura viciae)
The active compounds were formulated in 1:3 (vol:vol) DMSO: water with different concentrations of formulated compounds.
Bean leaf disks were placed into microtiterplates filled with 0.8% agar-agar and 2.5 ppm OPUS™. The leaf disks were sprayed with 2.5 μl of the test solution and 5 to 8 adult aphids were placed into the microtiterplates which were then closed and kept at 23±1° C. and 50±5% relative humidity under fluorescent light for 6 days. Mortality was assessed on the basis of vital, reproduced aphids. Aphid mortality and fecundity was then visually assessed.

[6] = system: Green peach aphid (Myzus persicae); experiment: Activity against green peach aphid through systemic means, artificial diet in 96-well microtiter plates; conditions: 72 h, read-out: mortality in comparison with untreated controls
From the text: II.6 Activity Against Green Peach Aphid (Myzus persicae)
For evaluating control of green peach aphid (Myzus persicae) through systemic means the test unit consisted of 96-well-microtiter plates containing liquid artificial diet under an artificial membrane.
The compounds were formulated using a solution containing 75% v/v water and 25% v/v DMSO. Different concentrations of formulated compounds were pipetted into the aphid diet, using a custom built pipetter, at two replications. After application, 5 to 8 adult aphids were placed on the artificial membrane inside the microtiter plate wells. The aphids were then allowed to suck on the treated aphid diet and incubated at about 23+1° C. and about 50+5% relative humidity for 3 days. Aphid mortality and fecundity was then visually assessed.

[7] = system: Vanda/Orchid thrips (Dichromothrips corbetti); experiment: Activity against Vanda/orchid thrips, petal dip; conditions: orchid petals dipped, recorded after 72 hours, read-out: mortality in comparison with untreated controls
Protocol: II.7 Activity Against Vanda/Orchid Thrips (Dichromothrips corbetti)
The active compounds were formulated as a 50:50 (vol:vol) acetone:water solution. Surfactant (Alkamuls EL 620) was added at the rate of 0.1% (vol/vol). Vanda orchids petals were cleaned, washed and air dried prior to spraying. Petals were dipped into the test solution for 3 seconds, air dried, placed inside a resealable plastic and inoculated with 20 adults. The treated petals were kept inside the holding room at 28-29° C. and relative humidity of 50-60%. Percent mortality was recorded after 72 hours.

[8] = system: Green peach aphids (Myzus persicae); experiment: Hydroponic test against green peach aphids, bare-root green pepper plants; conditions: bare roots immersed 24 hours, assay 3 days, read-out: mortality in comparison with untreated controls
Protocol: II.7.1 Activity in the Hydroponic Tests Against Green Peach Aphids (Myzus persicae)
(§2) Green pepper plants (Capsicum annuum L., variety ‘California Wonder’) are grown in the greenhouse from seed to the second true leaf stage (BBCH 12) in Scott's MetroMix® 360 (1-2 plants per 2¼″ square pot). Cotyledon leaves are removed and roots are rinsed in tap water until free of soil. The roots are kept moist under a layer of wet paper toweling until all plants have been prepared.
(§3) A 3,400 ppm stock solution is prepared of each test compound using reagent grade acetone as the solvent. Subsequent dilutions of 100 and 10 ppm are prepared from this stock with final dilutions in deionized water in 100 ml amber glass bottles. One bare root plant is placed in each bottle using a foam plug section to centrally secure the stem in the bottleneck. The bare roots are fully-immersed in the test suspensions. Host plants are placed in a plant growth room under continuous GroLux® fluorescent lighting (40W), for 24 hours at 25±2° C. and 20-40% RH.
(§4) After exposure of the bare roots to the test suspensions, pieces of pepper plants infested with green peach aphid (Myzus persicae) are placed on top of the test foliage. Insects are allowed to transfer from the host leaves to accomplish an infestation of 40-50 insects per plant. […] Phytotoxic responses of the host plants are also recorded at this time.

[9] = system: Cotton aphids (Aphis gossypii); experiment: Hydroponic test against cotton aphids, bare-root cotton plants; conditions: bare roots immersed 24 hours, assay 3 days, read-out: mortality in comparison with untreated controls
Protocol: II.8 Activity in the Hydroponic Tests against Cotton Aphids (Aphis gossypii)
as §2, with “Cotton” for “Green pepper”, “(Gossypium hirsutum,” for “(Capsicum annuum L.,”, “‘Sure Grow 747’)” for “‘California Wonder’)”, “Metro-Mix®” for “MetroMix®”
as §3
as §4, with “cotton” for “pepper”, “cotton aphids (Aphis gossypii)” for “green peach aphid (Myzus persicae)”

Row | SMILES | mortality at 300 ppm [1] [%] | mortality at 300 ppm [2] [%] | mortality at 300 ppm [3] [%] | mortality at 300 ppm [4] [%] | mortality at 2500 µg/mL [5] [%] | mortality at 2500 ppm [6] [%] | mortality at 500 ppm [7] [%] | mortality at 100 ppm [8] [%] | mortality at 100 ppm [9] [%]
1 | O=C(Nc1ccnnc1)c1conc1C1CC1 [Compound 4, 3-Cyclopropyl-isoxazole-4-carboxylic acid pyridazin-4-ylamide] | ≥ 75 | ≥ 75 | ≥ 90 | ≥ 75 | ≥ 90 | 100 | ≥ 50 | ≥ 75 | ≥ 75
2 | CN(C(=O)c1conc1C1CC1)c1ccnnc1 [Compound 5, 3-Cyclopropyl-isoxazole-4-carboxylic acid methyl-pyridazin-4-yl-amide] | ≥ 75 | ≥ 75 | ≥ 90 | ≥ 75 | ≥ 90 | 100 | ≥ 50 | ≥ 75 | ≥ 75
